The text below walks through data of patent US20230078764A1 (Yumanity Therapeutics, Inc., priority 2019, published 2023).

A word on the IC50: it is the midpoint of a concentration-inhibition curve.

The structures appear in SMILES notation. Where two headings read alike, the source gives them in different places. Bounds are passed on as bounds.

Experiment [1] addresses T1, human SCD5 (Homo sapiens, UniProt Q86SK9).
T1 construct: expressed in transfected cells; host or cells: yeast strain with OLE1 deleted, plasmid-borne human SCD5 (selected in SD-Ura)
T1 sequence (Q86SK9 1-330): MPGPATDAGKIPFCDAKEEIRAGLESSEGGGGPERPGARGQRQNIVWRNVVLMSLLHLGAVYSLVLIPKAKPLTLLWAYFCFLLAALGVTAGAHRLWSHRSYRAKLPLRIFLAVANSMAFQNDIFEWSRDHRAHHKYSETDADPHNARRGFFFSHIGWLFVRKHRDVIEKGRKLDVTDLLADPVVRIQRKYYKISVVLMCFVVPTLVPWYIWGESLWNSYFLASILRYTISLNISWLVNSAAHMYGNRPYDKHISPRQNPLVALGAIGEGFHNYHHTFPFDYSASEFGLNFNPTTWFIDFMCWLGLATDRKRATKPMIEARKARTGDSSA
Put plainly: Growth inhibition of yeast strain expressing human SCD5 as sole desaturase (OLE1 deleted), OD600 readout. The format is cell-based.

The target of experiment [2] is T2, human SCD1 (Homo sapiens, UniProt O00767).
T2 construct: expressed in transfected cells; host or cells: yeast strain with OLE1 deleted, plasmid-borne human SCD1 (selected in SD-Ura)
T2 sequence (O00767 1-359): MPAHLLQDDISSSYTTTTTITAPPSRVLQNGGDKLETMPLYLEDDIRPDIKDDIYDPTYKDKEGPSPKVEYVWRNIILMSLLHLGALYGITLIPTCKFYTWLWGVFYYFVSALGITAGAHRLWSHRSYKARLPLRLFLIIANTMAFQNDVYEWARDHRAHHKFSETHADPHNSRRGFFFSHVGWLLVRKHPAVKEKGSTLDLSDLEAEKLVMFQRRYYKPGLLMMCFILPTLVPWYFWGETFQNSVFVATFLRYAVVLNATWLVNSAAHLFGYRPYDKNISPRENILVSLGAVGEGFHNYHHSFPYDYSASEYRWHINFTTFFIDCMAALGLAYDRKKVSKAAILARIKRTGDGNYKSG
Put plainly: Growth inhibition of yeast strain expressing human SCD1 as sole desaturase (OLE1 deleted), OD600 readout. In kind it is cell-based.

Where [3] appears, read: yeast strain expressing human SCD5 as sole desaturase, growth (OD600) after 40 h at 30° C., read-out: SCD5 IC50.
The mark [4] stands for this setting: yeast strain expressing human SCD1 as sole desaturase, growth (OD600) after 40 h at 30° C., read-out: SCD1 IC50.

On to `CN1N=C(C(=O)Nc2nc(Cl)c(Cc3cccc(F)c3)s2)CCC1=O` [Compound 218, N-(4-chloro-5-(3-fluorobenzyl)thiazol-2-yl)-1-methyl-6-oxo-1,4,5,6-tetrahydropyridazine-3-carboxamide], for which the values for the IC50 in experiment [1] (setting [3]) and in experiment [2] (setting [4]) were 360 nM and 2730 nM, respectively.

On to `Cc1nc(NC(=O)C2=NN(C)C(=O)CC2)sc1Cc1cccc(F)c1` [Compound 219, N-(5-(3-fluorobenzyl)-4-methylthiazol-2-yl)-1-methyl-6-oxo-1,4,5,6-tetrahydropyridazine-3-carboxamide], for which the IC50 amounted to 1350 nM in experiment [1] (setting [3]) and 1580 nM in experiment [2] (setting [4]).

For the compound `CN1N=C(C(=O)Nc2ncc(Cc3cccc(F)c3)s2)CCC1=O` [Compound 220], the results for the IC50 in experiment [1] (setting [3]) and in experiment [2] (setting [4]) were 520 nM and 660 nM, respectively.

For `CN1N=C(C(=O)N(C)c2ncc(Cc3cccc(F)c3)s2)CCC1=O` [Compound 221], the IC50 in experiment [1] (setting [3]) and in experiment [2] (setting [4]) was greater than 45000 nM in each case.

Turning to `CC(C)N1N=C(C(=O)Nc2ncc(Cc3cccc(Cl)c3)s2)CCC1=O` [Compound 222, N-(5-(3-Chlorobenzyl)thiazol-2-yl)-1-isopropyl-6-oxo-1,4,5,6-tetrahydropyridazine-3-carboxamide], the IC50 in experiment [1] (setting [3]) amounted to 2510 nM; in experiment [2] (setting [4]), 7450 nM.

For `CN1CC(C(=O)Nc2ncc(Cc3cccc(F)c3)s2)CCC1=O` (stereo not drawn) [Compound 223, N-(5-(3-fluorobenzyl)thiazol-2-yl)-1-methyl-6-oxopiperidine-3-carboxamide], the IC50 in experiment [1] (SCD5 IC50) was 11300 nM; in experiment [2] (setting [4]) it was greater than 45000 nM.

Regarding `Cn1cc(C(=O)Nc2ncc(Cc3cccc(F)c3)s2)ccc1=O` [Compound 224, N-(5-(3-fluorobenzyl)thiazol-2-yl)-1-methyl-6-oxo-1,6-dihydropyridine-3-carboxamide], the IC50 in experiment [1] (SCD5 IC50) was 220 nM; in experiment [2] (SCD1 IC50), 310 nM.

With `O=C(Nc1ncc(Cc2cccc(Cl)c2)s1)c1ccc(=O)n(C2COC2)n1` [Compound 225, N-(5-(3-chlorobenzyl)thiazol-2-yl)-1-(oxetan-3-yl)-6-oxo-1,6-dihydropyridazine-3-carboxamide], the IC50 in experiment [1] (setting [3]) was 1960 nM; in experiment [2] (setting [4]), 2070 nM.

Turning to `O=C(Nc1ncc(Cc2cccc(F)c2)s1)c1ccc(=O)n(CCF)n1` [Compound 226, N-(5-(3-fluorobenzyl)thiazol-2-yl)-1-(2-fluoroethyl)-6-oxo-1,6-dihydropyridazine-3-carboxamide], the IC50 in experiment [1] (setting [3]) stood at 5710 nM; in experiment [2] (setting [4]), 7270 nM.

For the compound `CCn1nc(C(=O)Nc2ncc(Cc3cccc(F)c3)s2)ccc1=O` [Compound 227, 1-ethyl-N-(5-(3-fluorobenzyl)thiazol-2-yl)-6-oxo-1,6-dihydropyridazine-3-carboxamide], the IC50 was 360 nM in experiment [1] (setting [3]) and 440 nM in experiment [2] (setting [4]).

In the case of `CN1N=C(C(=O)Nc2ncc(Cc3cc(F)cc(F)c3)s2)CCC1=O` [Compound 229, N-(5-(3,5-difluorobenzyl)thiazol-2-yl)-1-methyl-6-oxo-1,4,5,6-tetrahydropyridazine-3-carboxamide], the IC50 was 110 nM in experiment [1] (setting [3]) and 140 nM in experiment [2] (setting [4]).

As to `CN1N=C(C(=O)Nc2ncc(Cc3ccccc3Cl)s2)CCC1=O` [Compound 230, N-(5-(2-chlorobenzyl)thiazol-2-yl)-1-methyl-6-oxo-1,4,5,6-tetrahydropyridazine-3-carboxamide], the IC50 in experiment [1] (setting [3]) turned out to be 3800 nM; in experiment [2] (setting [4]) it was 2880 nM.

As to `CN1N=C(C(=O)Nc2ncc(Cc3cncc(Cl)c3)s2)CCC1=O` [Compound 231, N-(5-((5-chloropyridin-3-yl)methyl)thiazol-2-yl)-1-methyl-6-oxo-1,4,5,6-tetrahydropyridazine-3-carboxamide], the IC50 in experiment [1] (setting [3]) stood at 3170 nM; in experiment [2] (setting [4]) it was 8930 nM.

`Cn1nc(C(=O)Nc2nc(Cl)c(Cc3cccc(F)c3)s2)ccc1=O` [Compound 232, N-(4-chloro-5-(3-fluorobenzyl)thiazol-2-yl)-1-methyl-6-oxo-1,6-dihydropyridazine-3-carboxamide]: the IC50 worked out at 70 nM in experiment [1] (setting [3]) and 140 nM in experiment [2] (setting [4]).

For the compound `Cn1nc(C(=O)Nc2nc(C#N)c(Cc3cccc(F)c3)s2)ccc1=O` [Compound 233, N-(4-cyano-5-(3-fluorobenzyl)thiazol-2-yl)-1-methyl-6-oxo-1,6-dihydropyridazine-3-carboxamide], the IC50 in experiment [1] (setting [3]) is 870 nM; in experiment [2] (setting [4]), 1630 nM.

As for `CN1N=C(C(=O)Nc2ncc(Cc3ccc(F)cc3F)s2)CCC1=O` [Compound 234, N-(5-(2,4-difluorobenzyl)thiazol-2-yl)-1-methyl-6-oxo-1,4,5,6-tetrahydropyridazine-3-carboxamide], the IC50 worked out at 1440 nM in experiment [1] (setting [3]) and 6300 nM in experiment [2] (setting [4]).

For the compound `CN1N=C(C(=O)Nc2ncc(Cc3cc(F)ccc3F)s2)CCC1=O` [Compound 235, N-(5-(2,5-difluorobenzyl)thiazol-2-yl)-1-methyl-6-oxo-1,4,5,6-tetrahydropyridazine-3-carboxamide], the results for the IC50 in experiment [1] (setting [3]) and in experiment [2] (setting [4]) were 1770 nM and 1880 nM, respectively.

In the case of `Cn1nc(C(=O)Nc2ncc(Cc3cccc(Cl)c3)s2)ccc1=O` [Compound 236, N-(5-(3-chlorobenzyl)thiazol-2-yl)-1-methyl-6-oxo-1,6-dihydropyridazine-3-carboxamide], the IC50 in experiment [1] (setting [3]) and in experiment [2] (setting [4]) was 10 nM in each case.

In the case of `CN1N=C(C(=O)Nc2ncc(N(C)c3cccc(F)c3)s2)CCC1=O` [Compound 237, N-(5-((3-fluorophenyl)(methyl)amino)thiazol-2-yl)-1-methyl-6-oxo-1,4,5,6-tetrahydropyridazine-3-carboxamide], the IC50 was 3200 nM in experiment [1] (setting [3]) and 7210 nM in experiment [2] (setting [4]).

For `O=C(Nc1ccc(Cc2cccc(F)c2)nn1)c1ccc2nccn2n1` [Compound 238], the half-maximal inhibitory concentration (IC50) in experiment [1] (setting [3]) is 3960 nM; in experiment [2] (setting [4]) it was 4060 nM.

Turning to `Cc1cc(C(=O)Nc2ccc(Cc3cccc(F)c3)cn2)nc(C)n1` [Compound 239], the half-maximal inhibitory concentration (IC50) in experiment [1] (setting [3]) came out at 10 nM; in experiment [2] (setting [4]), 250 nM.

`Cn1ccc(C(=O)Nc2ccc(Cc3cccc(F)c3)cn2)cc1=O` [Compound 240]: the values for the IC50 in experiment [1] (setting [3]) and in experiment [2] (setting [4]) were 310 nM and 4390 nM, respectively.

Take `Cc1ccc(C(=O)Nc2ccc(Cc3ccc(F)c(F)c3)cn2)nn1` [Compound 241]: the IC50 came out at 70 nM in experiment [1] (setting [3]) and 2030 nM in experiment [2] (setting [4]).

For `Cc1nccc(C(=O)Nc2ccc(Cc3cc(F)cc(F)c3)cn2)n1` [Compound 242], the IC50 in experiment [1] (setting [3]) turned out to be 10 nM; in experiment [2] (setting [4]) it was 50 nM.

Consider `Cc1ccc(C(=O)Nc2ccc(Cc3cccc(Cl)c3)cn2)nn1` [Compound 243], for which the values for the IC50 in experiment [1] (setting [3]) and in experiment [2] (setting [4]) were 10 nM and 60 nM, respectively.

In the case of `Cc1nccc(C(=O)Nc2ccc(Cc3ccc(F)c(Cl)c3)cn2)n1` [Compound 244], the IC50 in experiment [1] (setting [3]) and in experiment [2] (setting [4]) was 10 nM throughout.

Consider `CN1N=C(C(=O)Nc2ncc(Cc3cccc(F)c3)nn2)CCC1=O` [Compound 245], for which the IC50 in experiment [1] (setting [3]) and in experiment [2] (setting [4]) was greater than 45000 nM throughout.

For the compound `CN1N=C(C(=O)Nc2ccc(CCc3cccc(Cl)c3)nn2)CCC1=O` [Compound 246], the IC50 in experiment [1] (setting [3]) turned out to be 1590 nM; in experiment [2] (setting [4]) it was 6450 nM.

On to `CN1N=C(C(=O)Nc2ccc(Cc3ccc(Cl)s3)nn2)CCC1=O` [Compound 247], for which the concentration for half-maximal inhibition (IC50) in experiment [1] (setting [3]) is 2020 nM; in experiment [2] (setting [4]), greater than 45000 nM.

As for `Cn1cc(C(=O)Nc2ccc(Cc3ccc(F)cc3)cn2)ccc1=O` [Compound 248], the IC50 in experiment [1] (setting [3]) worked out at 10 nM; in experiment [2] (setting [4]) it was 200 nM.

As for `O=C(Nc1ccc(Cc2cccc(Cl)c2)cn1)N1CCn2nccc2C1` [Compound 249], the IC50 is 6750 nM in experiment [1] (setting [3]) and greater than 45000 nM in experiment [2] (setting [4]).

Take `O=C(Nc1ccc(Cc2cccc(Cl)c2)cn1)N1CC2(COC2)C1` [Compound 250]: the values for the IC50 in experiment [1] (setting [3]) and in experiment [2] (setting [4]) were 9750 nM and greater than 45000 nM, respectively.

With `Cc1cc(C(=O)Nc2ccc(Cc3cccc(F)c3)cn2)nn(C)c1=O` [Compound 251], the IC50 in experiment [1] (setting [3]) is 150 nM; in experiment [2] (setting [4]), greater than 45000 nM.

As to `Cc1cnc(C(=O)Nc2ccc(Cc3cccc(F)c3)cn2)cn1` [Compound 252], the IC50 in experiment [1] (setting [3]) turned out to be 130 nM; in experiment [2] (setting [4]) it was 690 nM.

With `Cn1nc(NC(=O)c2ccc(Cc3cccc(Cl)c3)nn2)ccc1=O` [Compound 254], the IC50 was 3530 nM in experiment [1] (setting [3]) and greater than 45000 nM in experiment [2] (setting [4]).

For `O=C(Nc1ccc(Cc2cccc(Cl)c2)cn1)c1ccc(=O)n(C2CC2)n1` [Compound 256], the IC50 in experiment [1] (setting [3]) came out at 40 nM; in experiment [2] (setting [4]), 750 nM.

For `CCCn1nc(C(=O)Nc2ccc(Cc3cccc(Cl)c3)nn2)ccc1=O` [Compound 257], the IC50 was 4360 nM in experiment [1] (setting [3]) and greater than 45000 nM in experiment [2] (setting [4]).

`O=C(Nc1ccc(Cc2cccc(F)c2)cn1)c1ccc(=O)n(C2CC2)c1` [Compound 258]: the figures for the IC50 in experiment [1] (setting [3]) and in experiment [2] (setting [4]) were 180 nM and 3860 nM, respectively.

On to `Cn1cc(C(=O)Nc2ccc(COc3cccc(Cl)c3)nn2)ccc1=O` [Compound 259], for which the figures for the IC50 in experiment [1] (setting [3]) and in experiment [2] (setting [4]) were 570 nM and 5370 nM, respectively.
